This is an account of results in paper PMC7470124, “Efficient synthesis, biological evaluation, and docking study of isatin based derivatives as caspase inhibitors” (Journal of Enzyme Inhibition and Medicinal Chemistry, 2020).

Entries after “also recorded” stand apart in the source; their conditions may differ.

The subject of one series is caspase-3 and −7. Nature of the series: Caspase-3 and -7 inhibition, acetyl-DEVD-AMC fluorogenic substrate assay (text does not say which caspase). In kind it is biochemical. To be noted: for inhibition percentage: at 20 μg/ml, caspase not given; for Selectivity Index (SI): IC50 caspase-7/IC50 caspase-3, greater than 1.5 = selective inhibitor of caspase-3; for inhibitory activity against caspase-3 and −7 (in words): compared to Ac-DEVD-CHO. The procedure:
(§1) The inhibitory activities of newly synthesised 2–(2,3-dioxoindolin-1-yl)-N-substituted phenyl acetamide, 1-(prop-2-yn-1-yl)indoline-2,3-dione and two series of compounds containing 1-(pyrrolidinyl)sulphonyl and 2-(phenoxymethyl)pyrrolidin-1-yl)sulphonyl substitution at C^5 position of isatin core (B, C, Table 1) against caspase-3 and −7 were evaluated by using the acetyl-DEVD-AMC fluorogenic substrate assay. The results are expressed as inhibition percentage and IC50 values in Table 1. We used Ac-DEVD-CHO as the positive control.
(§2) The activity assay of caspase-3 was performed in a system of 50 µL containing 150 mM NaCl, 1 mM EDTA, 2 mM DTT, 50 mM HEPES pH 7.4, 10 µM Ac-DEVD-AMC (Bachem Bioscience, Philadelphia, PA, USA) and 2 nM caspase-3 in the 1 µL DMSO. Caspase-3 was incubated with synthesised compounds in 384-well plates for 10 min. […] The enzymatic activity of the caspase-3 was measured based on production of a fluorogenic substrate, 7-amino-4-methyl coumarin, which was monitored for 10 min and detected using an EnVision (PerkinElmer, Wellesley, MA, USA) at λex = 360 nm and λem= 460 nm. The initial rate of hydrolysis was determined using the early linear region of the enzymatic reaction curve.

For a further series, the target named is T1, caspase-3 (Homo sapiens, UniProt P42574).
T1 sequence (P42574 29-175 limits assumed): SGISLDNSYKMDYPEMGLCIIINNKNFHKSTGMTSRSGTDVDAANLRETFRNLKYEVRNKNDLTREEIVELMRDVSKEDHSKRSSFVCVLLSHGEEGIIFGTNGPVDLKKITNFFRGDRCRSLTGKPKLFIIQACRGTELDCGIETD
T1 sequence (P42574 176-277 limits assumed): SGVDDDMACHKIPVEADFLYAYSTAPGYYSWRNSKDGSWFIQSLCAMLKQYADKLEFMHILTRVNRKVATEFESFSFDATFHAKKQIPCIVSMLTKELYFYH
The series can be described thus: Caspase-3 inhibition assay (Ac-DEVD-AMC fluorogenic substrate). In kind it is biochemical. Here is the method: as §1, §2

One may read the melting point as the temperature, or range, at which the solid turns liquid. `C#CCN1C(=O)C(=O)c2ccccc21` [11a, 1-(Prop-2-yn-1-yl)indoline-2,3-dione] gave a melting point of 158 to 160 °C.
Still for that read-out and setting: in the case of `O=C(CN1C(=O)C(=O)c2ccccc21)Nc1ccccc1` [11b, 2–(2,3-Dioxoindolin-1-yl)-N-phenylacetamide] it was 174 to 176 °C.
With `O=C(CN1C(=O)C(=O)c2ccccc21)Nc1ccc(F)cc1` [11c, 2–(2,3-Dioxoindolin-1-yl)-N-(4-fluorophenyl)acetamide], the inhibition percentage with caspase-3 and −7 amounted to 71%.
On to `O=C(CN1C(=O)C(=O)c2ccccc21)Nc1ccc(Cl)cc1` [11d, N-(4-Chlorophenyl)-2–(2,3-dioxoindolin-1-yl)acetamide], for which the melting point lay in the range of 177 to 179 °C.
Same read-out and setting: next, `O=C(CN1C(=O)C(=O)c2ccccc21)Nc1ccc(Br)cc1` [11e, N-(4-Bromophenyl)-2–(2,3-dioxoindolin-1-yl)acetamide]: 179 to 181 °C.
In the case of `O=C(CN1C(=O)C(=O)c2ccccc21)Nc1ccccc1[N+](=O)[O-]` [11f, 2–(2,3-Dioxoindolin-1-yl)-N-(2-nitrophenyl)acetamide], the melting point fell in the range of 186 to 188 °C. The same compound came in with an inhibition percentage with caspase-3 and −7 of 5%.
`O=C(CN1C(=O)C(=O)c2ccccc21)Nc1cccc([N+](=O)[O-])c1` [11g, 2–(2,3-Dioxoindolin-1-yl)-N-(3-nitrophenyl)acetamide]: the melting point was in the range of 191 to 192 °C.
The same measure, in the same setting: in the case of `O=C(CN1C(=O)C(=O)c2ccccc21)Nc1ccc([N+](=O)[O-])cc1` [11h, 2–(2,3-Dioxoindolin-1-yl)-N-(4-nitrophenyl)acetamide] it was 179 to 181 °C; in that of `O=C(CN1C(=O)C(=O)c2ccccc21)Nc1ccc(OC(F)(F)F)cc1` [11i, 2–(2,3-Dioxoindolin-1-yl)-N-(4-(trifluoromethoxy)phenyl)acetamide], 209 to 211 °C.
The same measure, in the same setting: in the case of `Cc1ccc(NC(=O)CN2C(=O)C(=O)c3ccccc32)cc1` [11j, 2–(2,3-Dioxoindolin-1-yl)-N-(p-tolyl)acetamide] it was 196 to 198 °C; in that of `COc1ccc(NC(=O)CN2C(=O)C(=O)c3ccccc32)cc1` [11k, 2–(2,3-Dioxoindolin-1-yl)-N-(4-methoxyphenyl)acetamide], 201 to 203 °C.
For the compound `C#CCN1C(=O)C(=O)c2cc(S(=O)(=O)N3CCCC3)ccc21` [19a, 1-(Prop-2-yn-1-yl)-5-(pyrrolidin-1-ylsulfonyl)indoline-2,3-dione], the melting point was in the range of 203 to 205 °C. In the series on caspase-3 and −7, the “Selectivity Index (SI)” value is recorded as “greater than 1.5”.
On to `O=C(CN1C(=O)C(=O)c2cc(S(=O)(=O)N3CCCC3)ccc21)Nc1ccc(F)cc1` [19c, 2–(2,3-Dioxo-5-(pyrrolidin-1-ylsulfonyl)indolin-1-yl)-N-(4-fluorophenyl)acetamide], for which the melting point was in the range of 191 to 193 °C.
Same read-out and setting: in the case of `O=C(CN1C(=O)C(=O)c2cc(S(=O)(=O)N3CCCC3)ccc21)Nc1ccccc1[N+](=O)[O-]` [19f, 2–(2,3-Dioxo-5-(pyrrolidin-1-ylsulfonyl)indolin-1-yl)-N-(2-nitrophenyl)acetamide] it was 195 to 197 °C; in that of `O=C(CN1C(=O)C(=O)c2cc(S(=O)(=O)N3CCCC3)ccc21)Nc1ccc(OC(F)(F)F)cc1` [19i, 2–(2,3-Dioxo-5-(pyrrolidin-1-ylsulfonyl)indolin-1-yl)-N-(4-(trifluoromethoxy)phenyl)acetamide], 266 to 267 °C; in that of `C#CCN1C(=O)C(=O)c2cc(S(=O)(=O)N3CCC[C@H]3COc3ccccc3)ccc21` [20a, (S)-5-((2-(Phenoxymethyl)pyrrolidin-1-yl)sulphonyl)-1-(prop-2-yn-1-yl)indoline-2,3-dione], 282 to 284 °C.
Still for that read-out and setting: next, `O=C(CN1C(=O)C(=O)c2cc(S(=O)(=O)N3CCC[C@H]3COc3ccccc3)ccc21)Nc1ccccc1` [20b, (S)-2–(2,3-Dioxo-5-((2-(phenoxymethyl)pyrrolidin-1-yl)sulphonyl)indolin-1-yl)-N-phenylacetamide]: 238 to 240 °C.
Consider `O=C(CN1C(=O)C(=O)c2cc(S(=O)(=O)N3CCC[C@H]3COc3ccccc3)ccc21)Nc1ccc(F)cc1` [20c, (S)-2–(2,3-Dioxo-5-((2-(phenoxymethyl)pyrrolidin-1-yl)sulphonyl)indolin-1-yl)-N-(4-fluorophenyl)acetamide], for which the melting point is 108 to 110 °C. Also, the “Selectivity Index (SI)” value in the series with caspase-3 and −7 is “greater than 1.5”.
`O=C(CN1C(=O)C(=O)c2cc(S(=O)(=O)N3CCC[C@H]3COc3ccccc3)ccc21)Nc1ccc(Cl)cc1` [20d, (S)-N-(4-chlorophenyl)-2–(2,3-dioxo-5-((2-(phenoxymethyl)pyrrolidin-1-yl)sulphonyl)indolin-1-yl)acetamide]: the melting point was 209 to 211 °C. Moreover, in the series with caspase-3 and −7, the “Selectivity Index (SI)” value is “greater than 1.5”; the “inhibitory activity against caspase-3 and −7 (in words)” value (from here on “inhibitory activity”) is listed as “most active compound; also recorded: moderate inhibitory activity”. Besides, the IC50 at caspase-3 turned out to be 2.33 µM.
For `O=C(CN1C(=O)C(=O)c2cc(S(=O)(=O)N3CCC[C@H]3COc3ccccc3)ccc21)Nc1ccc(Br)cc1` [20e, (S)-N-(4-Bromophenyl)-2–(2,3-dioxo-5-((2-(phenoxymethyl)pyrrolidin-1-yl)sulphonyl)indolin-1-yl)acetamide], the melting point lay within 196 to 198 °C. For the same compound, the “Selectivity Index (SI)” value with caspase-3 and −7 was “greater than 1.5”.
With `O=C(CN1C(=O)C(=O)c2cc(S(=O)(=O)N3CCC[C@H]3COc3ccccc3)ccc21)Nc1ccccc1[N+](=O)[O-]` [20f, (S)-2–(2,3-Dioxo-5-((2-(phenoxymethyl)pyrrolidin-1-yl)sulphonyl)indolin-1-yl)-N-(2-nitrophenyl)acetamide], the melting point lay in the range of 180 to 182 °C. For the same compound, the “inhibitory activity” value in the series with caspase-3 and −7 was “moderated caspase-3 and −7 inhibitors”.
As for `O=C(CN1C(=O)C(=O)c2cc(S(=O)(=O)N3CCC[C@H]3COc3ccccc3)ccc21)Nc1cccc([N+](=O)[O-])c1` [20g, (S)-2–(2,3-Dioxo-5-((2-(phenoxymethyl)pyrrolidin-1-yl)sulphonyl)indolin-1-yl)-N-(3-nitrophenyl)acetamide], the melting point was 181 to 183 °C.
Compound `O=C(CN1C(=O)C(=O)c2cc(S(=O)(=O)N3CCC[C@H]3COc3ccccc3)ccc21)Nc1ccc([N+](=O)[O-])cc1` [20h, (S)-2–(2,3-Dioxo-5-((2-(phenoxymethyl)pyrrolidin-1-yl)sulphonyl)indolin-1-yl)-N-(4-nitrophenyl)acetamide] gave a melting point of 162 to 164 °C.
Still for that read-out and setting: in the case of `O=C(CN1C(=O)C(=O)c2cc(S(=O)(=O)N3CCC[C@H]3COc3ccccc3)ccc21)Nc1ccc(OC(F)(F)F)cc1` [20i, (S)-2–(2,3-Dioxo-5-((2-(phenoxymethyl)pyrrolidin-1-yl)sulphonyl)indolin-1-yl)-N-(4-(trifluoromethoxy)phenyl)acetamide] it was 218 to 220 °C.
`Cc1ccc(NC(=O)CN2C(=O)C(=O)c3cc(S(=O)(=O)N4CCC[C@H]4COc4ccccc4)ccc32)cc1` [20j, (S)-2–(2,3-Dioxo-5-((2-(phenoxymethyl)pyrrolidin-1-yl)sulphonyl)indolin-1-yl)-N-(p-tolyl)acetamide] yielded a melting point of 209 to 211 °C. Also, in the series with caspase-3 and −7, the “inhibitory activity” value is given as “lowest enzymatic inhibition”.
In the same order, the values of `COc1ccc(NC(=O)CN2C(=O)C(=O)c3cc(S(=O)(=O)N4CCC[C@H]4COc4ccccc4)ccc32)cc1` [20k, (S)-2–(2,3-Dioxo-5-((2-(phenoxymethyl)pyrrolidin-1-yl)sulphonyl)indolin-1-yl)-N-(4-methoxyphenyl)acetamide] are 204 to 206 °C and “lowest enzymatic inhibition”.
For the compound Ac-DEVD-CHO [reference compound], the IC50 at caspase-3 and −7 (caspase-3 and −7, Mean ± SD of three experiments, read-out: IC50 (positive control / studied compounds)) stood at 0.016 ± 0.002 µM.
